Source: patent publication US8846949B2, “Pyrrolopyrazoles as N-type calcium channel blockers” (Janssen Pharmaceutica NV, priority 2012, dated 2014)
Like-named read-outs stand apart in the source and are kept apart here.

Columns and labels:
[1] = target: T1, N-type calcium channel α1B (Cav2.2), β3 and α2δ subunits (Homo sapiens, UniProt Q00975); test: Functional assay, antagonism of N-type calcium channel (FDSS calcium mobilization response to KCl depolarization); type: cell-based; conditions: for IC50: HEK stable cell line, 50 mM KCl depolarization, six-point concentration-response; for inhibition at 0.33 µM: 0.33 μM compound, FDSS, 50 mM KCl
T1 construct: expressed in transfected cells
T1 sequence (Q00975 whole entry): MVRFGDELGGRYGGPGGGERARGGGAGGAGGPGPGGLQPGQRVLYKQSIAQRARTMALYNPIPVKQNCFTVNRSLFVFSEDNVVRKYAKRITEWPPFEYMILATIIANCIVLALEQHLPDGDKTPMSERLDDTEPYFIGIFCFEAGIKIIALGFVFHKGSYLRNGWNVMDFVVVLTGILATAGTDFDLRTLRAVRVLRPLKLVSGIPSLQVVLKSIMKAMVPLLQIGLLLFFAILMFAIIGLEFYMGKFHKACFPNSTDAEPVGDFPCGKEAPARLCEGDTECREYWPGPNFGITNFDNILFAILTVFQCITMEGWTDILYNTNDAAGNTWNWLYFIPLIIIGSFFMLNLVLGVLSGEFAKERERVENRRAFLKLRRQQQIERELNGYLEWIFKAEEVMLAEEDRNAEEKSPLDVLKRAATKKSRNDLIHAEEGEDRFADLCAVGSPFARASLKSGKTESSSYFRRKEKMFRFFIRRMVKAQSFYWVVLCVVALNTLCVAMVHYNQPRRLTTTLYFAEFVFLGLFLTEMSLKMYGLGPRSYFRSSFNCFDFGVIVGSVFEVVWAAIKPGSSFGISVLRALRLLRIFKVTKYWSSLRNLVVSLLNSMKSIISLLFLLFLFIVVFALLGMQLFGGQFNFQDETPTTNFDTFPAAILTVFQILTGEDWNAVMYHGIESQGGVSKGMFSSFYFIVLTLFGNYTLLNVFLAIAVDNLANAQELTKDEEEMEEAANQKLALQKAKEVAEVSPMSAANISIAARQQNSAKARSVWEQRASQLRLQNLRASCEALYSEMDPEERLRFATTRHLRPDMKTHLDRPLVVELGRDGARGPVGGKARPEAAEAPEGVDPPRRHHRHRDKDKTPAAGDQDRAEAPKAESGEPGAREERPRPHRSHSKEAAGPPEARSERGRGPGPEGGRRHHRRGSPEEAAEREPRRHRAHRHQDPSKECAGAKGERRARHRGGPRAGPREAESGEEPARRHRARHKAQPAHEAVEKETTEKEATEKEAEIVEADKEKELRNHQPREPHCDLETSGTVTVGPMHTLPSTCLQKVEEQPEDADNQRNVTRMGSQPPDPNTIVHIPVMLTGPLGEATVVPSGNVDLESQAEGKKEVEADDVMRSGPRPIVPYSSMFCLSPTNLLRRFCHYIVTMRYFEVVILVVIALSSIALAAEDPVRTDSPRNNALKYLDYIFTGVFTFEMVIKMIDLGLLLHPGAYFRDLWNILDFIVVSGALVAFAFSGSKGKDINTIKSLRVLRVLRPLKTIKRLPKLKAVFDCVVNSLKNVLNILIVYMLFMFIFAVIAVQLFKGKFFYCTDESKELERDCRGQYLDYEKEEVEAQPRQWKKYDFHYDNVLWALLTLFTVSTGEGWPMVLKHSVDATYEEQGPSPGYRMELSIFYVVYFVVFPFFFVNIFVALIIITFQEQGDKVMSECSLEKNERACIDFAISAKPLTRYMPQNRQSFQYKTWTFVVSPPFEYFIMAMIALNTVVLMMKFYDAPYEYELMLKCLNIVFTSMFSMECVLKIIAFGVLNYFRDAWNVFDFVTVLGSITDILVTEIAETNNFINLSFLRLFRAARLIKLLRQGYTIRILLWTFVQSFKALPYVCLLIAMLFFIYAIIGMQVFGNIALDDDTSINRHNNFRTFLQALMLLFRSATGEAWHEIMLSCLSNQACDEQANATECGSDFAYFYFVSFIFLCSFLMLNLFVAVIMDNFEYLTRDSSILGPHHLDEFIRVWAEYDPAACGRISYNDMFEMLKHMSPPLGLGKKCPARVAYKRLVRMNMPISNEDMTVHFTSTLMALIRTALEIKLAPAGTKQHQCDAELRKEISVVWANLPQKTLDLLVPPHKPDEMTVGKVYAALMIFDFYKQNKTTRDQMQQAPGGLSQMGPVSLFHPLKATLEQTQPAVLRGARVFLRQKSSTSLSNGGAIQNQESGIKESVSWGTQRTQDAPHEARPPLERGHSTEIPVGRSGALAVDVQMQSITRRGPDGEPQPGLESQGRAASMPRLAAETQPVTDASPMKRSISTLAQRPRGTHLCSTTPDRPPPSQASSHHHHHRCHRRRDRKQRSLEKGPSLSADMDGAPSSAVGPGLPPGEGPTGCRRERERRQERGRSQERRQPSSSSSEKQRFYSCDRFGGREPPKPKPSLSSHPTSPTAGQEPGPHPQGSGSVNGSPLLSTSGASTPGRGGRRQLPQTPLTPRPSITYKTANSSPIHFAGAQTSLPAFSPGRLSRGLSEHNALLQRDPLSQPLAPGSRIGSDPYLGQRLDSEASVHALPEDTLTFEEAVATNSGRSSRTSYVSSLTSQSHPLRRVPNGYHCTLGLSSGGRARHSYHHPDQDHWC
T1 sequence (P54284 whole entry partner): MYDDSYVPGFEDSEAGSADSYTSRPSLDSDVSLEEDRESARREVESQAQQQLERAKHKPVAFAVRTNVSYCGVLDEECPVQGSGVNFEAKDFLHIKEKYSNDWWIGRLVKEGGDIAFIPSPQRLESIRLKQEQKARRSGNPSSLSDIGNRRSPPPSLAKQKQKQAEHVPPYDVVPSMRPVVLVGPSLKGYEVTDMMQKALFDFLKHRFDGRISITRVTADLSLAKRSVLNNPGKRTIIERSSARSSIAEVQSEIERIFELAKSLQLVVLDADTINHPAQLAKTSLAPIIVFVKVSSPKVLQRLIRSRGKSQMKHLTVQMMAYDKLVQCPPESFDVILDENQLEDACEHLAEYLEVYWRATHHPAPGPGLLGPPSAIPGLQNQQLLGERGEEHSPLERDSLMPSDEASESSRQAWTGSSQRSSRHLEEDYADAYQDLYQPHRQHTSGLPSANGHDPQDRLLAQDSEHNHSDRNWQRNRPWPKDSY
T1 sequence (P54289 25-956 partner limits assumed): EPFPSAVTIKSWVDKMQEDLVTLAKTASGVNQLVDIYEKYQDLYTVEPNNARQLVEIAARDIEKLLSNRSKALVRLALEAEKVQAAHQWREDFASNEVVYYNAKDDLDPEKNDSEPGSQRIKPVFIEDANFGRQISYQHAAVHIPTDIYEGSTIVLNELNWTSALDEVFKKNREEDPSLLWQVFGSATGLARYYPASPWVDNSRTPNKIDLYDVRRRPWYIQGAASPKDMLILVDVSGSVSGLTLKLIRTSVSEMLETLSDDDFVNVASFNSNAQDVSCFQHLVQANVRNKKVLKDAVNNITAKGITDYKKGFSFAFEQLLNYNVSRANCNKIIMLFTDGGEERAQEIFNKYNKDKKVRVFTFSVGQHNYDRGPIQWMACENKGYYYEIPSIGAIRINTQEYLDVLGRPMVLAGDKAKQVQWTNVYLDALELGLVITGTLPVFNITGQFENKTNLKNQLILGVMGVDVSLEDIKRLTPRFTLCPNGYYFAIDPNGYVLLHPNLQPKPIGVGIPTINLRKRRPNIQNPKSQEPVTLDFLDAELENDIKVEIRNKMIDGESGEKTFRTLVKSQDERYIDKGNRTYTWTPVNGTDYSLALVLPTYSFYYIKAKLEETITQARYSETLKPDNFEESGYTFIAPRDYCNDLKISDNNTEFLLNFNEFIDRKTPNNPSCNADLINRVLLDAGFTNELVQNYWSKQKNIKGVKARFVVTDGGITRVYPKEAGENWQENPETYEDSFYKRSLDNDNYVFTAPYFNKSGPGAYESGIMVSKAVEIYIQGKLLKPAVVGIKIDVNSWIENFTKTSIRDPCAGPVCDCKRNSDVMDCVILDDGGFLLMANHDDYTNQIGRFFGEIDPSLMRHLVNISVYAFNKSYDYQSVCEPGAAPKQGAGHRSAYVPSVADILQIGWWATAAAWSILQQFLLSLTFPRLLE
T1 sequence (P54289 957-1103 partner limits assumed): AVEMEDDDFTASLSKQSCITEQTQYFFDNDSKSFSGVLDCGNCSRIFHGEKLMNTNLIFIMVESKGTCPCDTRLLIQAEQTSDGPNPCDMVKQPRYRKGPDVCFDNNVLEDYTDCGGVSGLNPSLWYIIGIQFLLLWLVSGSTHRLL
In short: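 HEK cells stably co-expressing α1B (Cav2.2), β3 and α2δ subunits were loaded with calcium dye, preincubated with compound for 5 min, then depolarized with 50 mM KCl and read for 3 min by FDSS fluorescence. IC50 from six-point curves, normalized to KCl maximum and buffer minimum.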

[2] = target: T2, N-type calcium channel (Homo sapiens, UniProt Q00975); test: Automated electrophysiology assay (QPatch-HT whole-cell patch clamp); type: cell-based
T2 construct: expressed in transfected cells
T2 sequence (Q00975 whole entry): as the sequence (Q00975 whole entry) above
T2 sequence (P54284 whole entry partner): as the sequence (P54284 whole entry partner) above
T2 sequence (P54289 25-956 partner limits assumed): as the sequence (P54289 25-956 partner limits assumed) above
T2 sequence (P54289 957-1103 partner limits assumed): as the sequence (P54289 957-1103 partner limits assumed) above
Procedure: Cells were grown in T175 flasks to 50%-90% confluence. At the time of use, cells were enzymatically treated with Detachin (Genlantis, San Diego, Calif. USA), centrifuged, rinsed, and resuspended in 293 SFM II media (Life Technologies, Grand Island, N.Y. U.S.A.) supplemented with 25 mM HEPES (Sigma-Aldrich, St. Louis, Mo. U.S.A.) to a concentration of 2-3×10^6 cells/mL. Cells were added to the automated cell preparation station on the QPatch-HT (Sophion Biosciences, North Brunswick, N.J. U.S.A.), and following a 10- to 30-min recovery period with gentle stirring, the assay protocol was initiated. During the automated cell preparation, cells were collected, centrifuged and resuspended in an extracellular (EC) solution containing 132 mM NaCl, 1.8 mM CaCl2, 5.4 mM KCl, 0.8 mM MgCl2, 10 mM glucose, and 10 mM HEPES (pH=7.4), adjusted with sucrose to approximately 315 m0sm. The QPlate was primed with an intracellular solution containing 135 mM CsCl, 10 mM EGTA, 4 MgATP, 0.3 NaGTP, and 20 mM HEPES (pH=7.2), adjusted to approximately 290 m0sm with deionized water and the EC solution. Cells were added to the prepared QPlate wells by robotic pipettes of the QPatch-HT.
For cells determined to be in stable whole-cell patch clamp, the EC solution was replaced with a barium (Ba)/triethylammonium (TEA) solution containing 140 mM TEA-Cl, 10 mM BaCl2, 0.8 mM MgCl2, 10 mM glucose and 10 mM HEPES (pH=7.4). High (40 mM) BaCl2 concentrations were made with adjustments to TEA-C1 (90 mM) to maintain the osmolarity. From a resting potential of −80 mV, a train of depolarizing pulses (15 pulses at 5 Hz, +20 mV) was delivered to the cell once every 30 sec for eight trains (4 min total), and the resulting currents were measured during a control period (no compound). This protocol was repeated for each subsequent addition of control buffer with or without compound (three periods total, each with four trains). The current generated in the 1st and 15th pulses of the last train of each period in the presence of each drug concentration was normalized to the current generated during the control period at the respective pulses (representing low- and high-frequency stimulation, respectively). Data from both the second and third drug application periods were analyzed for each cell. A final addition of Ba/TEA solution containing 60-100 μM CdCl2 was made to block all N-type current and to “zero” the currents for each cell. All buffer/compound additions were made using a “spitting” feature of the QPatch-HT, which added three repetitions of 5 μL solution at the beginning of each recording period.
To examine closed-state inactivation, cells were subjected to a channel-activating 50-msec depolarizing step pulse from −80 to +10 mV, followed by a 5-sec nonactivating step to voltages ranging from −130 to −60 mV in 10 mV increments and then a 50-ms step from −80 to +10 mV to assess the remaining current. Currents from the activating voltage pulse were normalized to the peak value of the test pulse following the −130 mV step and fit to a Boltzman equation to obtain the V1/2. Roscovitine (Sigma-Aldrich) was prepared as a 100 mM stock in dimethyl sulfoxide and diluted to the indicated working concentrations. […]. Compounds of Formula (I) were diluted first into dimethyl sulfoxide and then into 10% pluronic F-127 in water (Life Technologies), sonicated for 1 min and diluted into EC buffer. Vehicle controls were run in parallel in all experiments.
Unless otherwise indicated, statistics for comparing among electrophysiological results utilized a one-way analysis of variance with Fisher's least squares determination test for pair-wise comparison.

[3] = high frequency (15th pulse of train, 5 Hz), read-out: QPatch at High Frequency % Inhibition
[4] = low frequency (1st pulse of train), read-out: QPatch at Low Frequency % Inhibition

Row | Compound | IC50 [1] | inhibition at 0.1 µM [2, 3] | inhibition at 0.1 µM [2, 4] | inhibition at 0.33 µM [1] | inhibition at 1 µM [2, 3] | inhibition at 1 µM [2, 4]
1 | COc1ccccc1-n1nc2c(c1-c1ccc(Cl)cc1)CN(S(=O)(=O)N1CCCC1)C2 [Cpd 60, 3-(4-Chlorophenyl)-2-(2-methoxyphenyl)-5-(pyrrolidin-1-ylsulfonyl)-2,4,5,6-tetrahydropyrrolo[3,4-c]pyrazole] | 0.002 µM | 44% | 29% |  |  | 
2 | COc1ccccc1-n1nc2c(c1-c1ccc(Cl)cc1)CN(S(=O)(=O)N1CCCCC1)C2 [Cpd 62, 3-(4-Chlorophenyl)-2-(2-methoxyphenyl)-5-(piperidin-1-ylsulfonyl)-2,4,5,6-tetrahydropyrrolo[3,4-c]pyrazole] | 0.004 µM | 45% | 20% |  |  | 
3 | COc1cc(Cl)ccc1-n1nc2c(c1-c1ccc(Cl)cc1)CN(S(=O)(=O)C(C)C)C2 [Cpd 64, 2-(4-Chloro-2-methoxyphenyl)-3-(4-chlorophenyl)-5-[(1-methylethyl)sulfonyl]-2,4,5,6-tetrahydropyrrolo[3,4-c]pyrazole] | 0.033 µM | 24% | 12% | 86% |  | 
4 | COc1cc(Cl)ccc1-n1nc2c(c1-c1ccc(Cl)cc1)CN(S(=O)(=O)N(C)C)C2 [Cpd 65, 2-(4-Chloro-2-methoxyphenyl)-3-(4-chlorophenyl)-N,N-dimethyl-2,6-dihydropyrrolo[3,4-c]pyrazole-5(4H)-sulfonamide] | 0.15 µM | 1% | -8% | 74% |  | 
5 | COc1cc(F)ccc1-n1nc2c(c1-c1ccc(Cl)cc1)CN(S(=O)(=O)C(C)C)C2 [Cpd 71, 3-(4-Chlorophenyl)-2-(4-fluoro-2-methoxyphenyl)-5-[(1-methylethyl)sulfonyl]-2,4,5,6-tetrahydropyrrolo[3,4-c]pyrazole] | 0.021 µM | 1% | -30% | 91% |  | 
6 | COc1cc(F)ccc1-n1nc2c(c1-c1ccc(Cl)cc1)CN(S(=O)(=O)N1CCC(C)CC1)C2 [Cpd 73, 3-(4-Chlorophenyl)-2-(4-fluoro-2-methoxyphenyl)-5-[(4-methylpiperidin-1-yl)sulfonyl]-2,4,5,6-tetrahydropyrrolo[3,4-c]pyrazole] | 0.024 µM | -28% | -34% | 93% |  | 
7 | CCCC(C)S(=O)(=O)N1Cc2nn(-c3ccc(C)cc3OC)c(-c3ccc(Cl)cc3)c2C1 (stereo not drawn) [Cpd 76, 3-(4-Chlorophenyl)-2-(2-methoxy-4-methylphenyl)-5-[(1-methylbutyl)sulfonyl]-2,4,5,6-tetrahydropyrrolo[3,4-c]pyrazole] | 0.021 µM |  |  | 90% | 30% | -3%
8 | CC(C)S(=O)(=O)N1Cc2nn(-c3cccc4c3OCO4)c(-c3ccc(Cl)cc3)c2C1 [Cpd 81, 2-(1,3-Benzodioxol-4-yl)-3-(4-chlorophenyl)-5-[(1-methylethyl)sulfonyl]-2,4,5,6-tetrahydropyrrolo[3,4-c]pyrazole] | 0.02 µM |  | -19% | 89% |  | 
9 | CC(C)CS(=O)(=O)N1Cc2nn(-c3cccc4c3OCO4)c(-c3ccc(Cl)cc3)c2C1 [Cpd 82, 2-(1,3-Benzodioxol-4-yl)-3-(4-chlorophenyl)-5-[(2-methylpropyl)sulfonyl]-2,4,5,6-tetrahydropyrrolo[3,4-c]pyrazole] | 0.028 µM | 15% | 4% | 87% |  | 
10 | CC1CCN(S(=O)(=O)N2Cc3nn(-c4cccc5c4OCO5)c(-c4ccc(Cl)cc4)c3C2)CC1 [Cpd 83, 2-(1,3-Benzodioxol-4-yl)-3-(4-chlorophenyl)-5-[(4-methylpiperidin-1-yl)sulfonyl]-2,4,5,6-tetrahydropyrrolo[3,4-c]pyrazole] | 0.02 µM | 27% | 12% | 92% |  | 
11 | CC(C)S(=O)(=O)N1Cc2nn(-c3cccc4c3OCC4)c(-c3ccc(Cl)cc3)c2C1 [Cpd 84, 3-(4-Chlorophenyl)-2-(2,3-dihydro-1-benzofuran-7-yl)-5-[(1-methylethyl)sulfonyl]-2,4,5,6-tetrahydropyrrolo[3,4-c]pyrazole] | 0.01 µM | 7% | -3% | 94% |  | 
12 | CC(C)CS(=O)(=O)N1Cc2nn(-c3cccc4c3OCC4)c(-c3ccc(Cl)cc3)c2C1 [Cpd 85, 3-(4-Chlorophenyl)-2-(2,3-dihydro-1-benzofuran-7-yl)-5-[(2-methylpropyl)sulfonyl]-2,4,5,6-tetrahydropyrrolo[3,4-c]pyrazole] | 0.014 µM | 37% | 13% | 94% |  | 
13 | CC1CCN(S(=O)(=O)N2Cc3nn(-c4cccc5c4OCC5)c(-c4ccc(Cl)cc4)c3C2)CC1 [Cpd 86, 3-(4-Chlorophenyl)-2-(2,3-dihydro-1-benzofuran-7-yl)-5-[(4-methylpiperidin-1-yl)sulfonyl]-2,4,5,6-tetrahydropyrrolo[3,4-c]pyrazole] | 0.007 µM | 33% | 20% | 96% |  | 
14 | COc1ccccc1-n1nc2c(c1-c1ccc(Cl)cc1)CN(S(=O)(=O)c1c(C)noc1C)C2 [Cpd 87, 3-(4-Chlorophenyl)-5-[(3,5-dimethylisoxazol-4-yl)sulfonyl]-2-(2-methoxyphenyl)-2,4,5,6-tetrahydropyrrolo[3,4-c]pyrazole] | 0.017 µM | 49% | 31% | 89% |  | 
15 | CC(C)S(=O)(=O)N1Cc2nn(-c3ccccc3N(C)C)c(-c3ccc(Cl)cc3)c2C1 [Cpd 88, 2-[3-(4-Chlorophenyl)-5-[(1-methylethyl)sulfonyl]-5,6-dihydropyrrolo[3,4-c]pyrazol-2(4H)-yl]-N,N-dimethylaniline] | 0.005 µM | 47% | 26% | 96% |  | 
16 | CCS(=O)(=O)N1Cc2nn(-c3ccccc3N(C)C)c(-c3ccc(Cl)cc3)c2C1 [Cpd 89, 2-[3-(4-Chlorophenyl)-5-(ethylsulfonyl)-5,6-dihydropyrrolo[3,4-c]pyrazol-2(4H)-yl]-N,N-dimethylaniline] | 0.028 µM | 34% | 10% | 90% |  | 
17 | COc1ccccc1-n1nc2c(c1-c1ccc(Cl)nc1)CN(S(=O)(=O)C(C)C)C2 [Cpd 92, 3-(6-Chloropyridin-3-yl)-2-(2-methoxyphenyl)-5-[(1-methylethyl)sulfonyl]-2,4,5,6-tetrahydropyrrolo[3,4-c]pyrazole] | 0.016 µM | 10% | 14% | 86% |  | 
18 | CN(C)S(=O)(=O)N1Cc2nn(-c3ccccc3OCC(F)F)c(-c3ccc(Cl)cc3)c2C1 [Cpd 95, 3-(4-Chlorophenyl)-2-[2-(2,2-difluoroethoxy)phenyl]-N,N-dimethyl-2,6-dihydropyrrolo[3,4-c]pyrazole-5(4H)-sulfonamide] | 0.05 µM | 23% | -4% | 79% |  | 
